Data on 21 molecules can be found in patent US5925618A, “Peptides useful as somatostatin antagonists” (American Cyanamid Company, priority 1998, dated 1999).

Square brackets hold non-standard residues; d marks the D form. Peptide text beside a SMILES is read from it.

T1 sequence (P30680 whole entry): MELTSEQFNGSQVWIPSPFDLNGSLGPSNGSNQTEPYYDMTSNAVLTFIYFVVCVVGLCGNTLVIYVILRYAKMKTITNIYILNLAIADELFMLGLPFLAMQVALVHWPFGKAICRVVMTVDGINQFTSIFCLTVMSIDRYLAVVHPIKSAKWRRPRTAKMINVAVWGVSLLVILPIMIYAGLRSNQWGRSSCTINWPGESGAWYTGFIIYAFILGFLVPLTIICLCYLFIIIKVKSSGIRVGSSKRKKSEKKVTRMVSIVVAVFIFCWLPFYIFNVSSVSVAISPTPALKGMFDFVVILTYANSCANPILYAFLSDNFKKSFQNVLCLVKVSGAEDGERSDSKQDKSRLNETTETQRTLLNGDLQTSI

One test has as its target T1, rat SSTR2 (Rattus norvegicus, UniProt P30680).
T1 construct: expressed in transfected cells; host or cells: GH4C1 rat pituitary tumor cells
The experiment in a line: cAMP accumulation in forskolin-stimulated GH4 C1/SSTR2 cells. Type of test: cell-based. Conditions: Forskolin 1.25 μM + MK 678 10 nM, no peptide 1. The source says:
A primary effect of SRIF upon mammalian cells is the reduction of cyclic adenosine 3',5'-monophosphate(cAMP) levels, via inhibition of adenylyl cyclase. This is the basis of a common assay for SRIF agonists and antagonists, whereby SRIF agonists reduce artificially stimulated cAMP levels, and SRIF antagonists reverse the effect of SRIF. The rat pituitary tumor cell line GH4 C1 predominantly expresses SSTR2, and responds to SRIF and to forskolin, a stimulator of adenylate cyclase (see C. M. Eppler, et al., J. Biol. Chem., 267, 15603-15612, 1992, incorporated herein by reference). A highly sensitive assay for SRIF agonists and antagonists results from additionally transfecting GH4 C1 cells with the cloned rat SSTR2, (see L. A. Price, et al., Molecular and Cellular Biology, 15, 6188-6195, 1995, incorporated herein by reference). This increases the response to SRIF and provides a greater dynamic range for the measurement of SRIF antagonist activity.
Stimulation of cells. GH4 C1 /SSTR2 cells, grown in DMEM with 10% bovine serum, are released from a tissue culture dish by incubation for several minutes at 37° C. with PBS containing 0.5 mM EDTA. Cells are washed in induction buffer (PBS containing 100 μM IBMX (an inhibitor of cAMP breakdown) and 2 mM CaCl2) at room temperature, and resuspended at 2×10^6 /mL in induction buffer. Into each well of a 96-well tray are added 50 μL of a 2× concentration of stimulants in induction buffer. These include (at final concentration) 1.25 μM forskolin, 100 nM SRIF or 10 nM of the SSTR2-selective agonist MK678 and test peptides at various concentrations. To initiate stimulation of the cells, 50 μL (100,000) cells are added to each well, mixed by shaking 10 seconds on a plate shaker and placed at 37° C. for 15 minutes. Stimulation is arrested and cells are lysed by adding 15 μL 0.33N HCl to each well and incubating the plate for 30 minutes at 37° C. Samples are neutralized by addition of 15 μL 0.25N NaOH/50 mM Hepes pH 7.4. Baseline cAMP levels are determined in samples with no added forskolin or SRIF, and each treatment is performed in triplicate.
cAMP assay. To measure accumulated cAMP in the samples, a radioimmunoassay is employed. The scintillation proximity assay (SPA, Amersham, Arlington Heights, Ill.) allows the rapid measurement of ^125 I cAMP bound to a specific antibody without separating bound radioligand from free radioligand. Each of the following reagents (50 μL) are added per well in a 96-well tray: supernatants from the cell stimulation; ^125 I cAMP; SPA beads conjugated to monkey anti-rabbit IgG antibodies; and rabbit anti-cAMP antibodies. For the standard curve, known amounts of cAMP (0.2-12.8 pmol) are added in place of cell supernatants. The 96-well tray is sealed, shaken at room temperature overnight and measured for bound radioligand in a MicroBeta liquid scintillation counter (Wallac, Gaithersburg, Md.). The standard curve is determined for each experiment by performing a nonlinear regression (exponential decay) analysis of cpm measured for the cAMP standards vs. their log concentrations, and test sample values are determined by using Prism software (Graphpad Software Inc., San Diego, Calif.) and are shown in Table II and FIG. 1. FIG. I illustrates the antagonist activity of Peptide 1.
The intrinsic activity of an SRIF antagonist is the percent reversal of the SSTR2, activation by SRIF or MK678, wherein 0% is defined by cAMP levels in samples treated with forskolin plus SRIF or MK678 and 100% is the cAMP level measured after treatment with forskolin alone. Therefore, increased intrinsic activity of a test compound indicates increased antagonist activity of said test compound.
FIG. […]
An inverse agonist is a compound that is not only a pure antagonist (i.e. lacking agonist activity), but also blocks the constitutive activity of an unoccupied receptor. One indication of inverse agonist activity is the ability of a SRIF antagonist to increase cAMP levels in the absence of added SRIF. […]
For the molecule `CC(C)[C@@H]1NC(=O)[C@H](CCCCN)NC(=O)[C@@H](Cc2c[nH]c3ccccc23)NC(=O)[C@H](Cc2ccc(O)cc2)NC(=O)[C@H](C)N(C)C(=O)[C@H](Cc2ccccc2)NC1=O` [MK678, reference compound], the cAMP was 0.91 pM per 4 × 10^4 cells.

The same test, now with this note: Forskolin 1.25 μM alone.
`C=C[C@@]1(C)CC(=O)[C@]2(O)[C@@]3(C)[C@@H](O)CCC(C)(C)[C@@H]3[C@H](O)[C@H](OC(C)=O)[C@@]2(C)O1` [Forskolin, forskolin, reference compound]: the cAMP is 3.04 pM per 4 × 10^4 cells.

Still in this test, the particulars now being: GH4-C1; test peptide 2 μM; read-out: cAMP Assay, Intrinsic activity (percent reversal of SSTR2 activation by SRIF or MK678).
As to `CC[C@@H](C)[C@@H](NC(=O)[C@@H](Cc1ccccc1)NC(C)=O)C(=O)N[C@H](CCCNC(=N)N)C(=O)N[C@H](Cc1c[nH]c2ccccc12)C(=O)N[C@H](Cc1ccccc1)C(N)=O` [Peptide 7, f-i-r-w-f] (Ac-[dF][dI][dR][dW][dF]-NH2), the Emax was -7.2%.

Consider `CC(=O)N[C@H](Cc1c[nH]cn1)C(=O)N[C@H](Cc1ccccc1)C(=O)N[C@H](CCCNC(=N)N)C(=O)N[C@H](Cc1c[nH]c2ccccc12)C(=O)N[C@H](Cc1ccccc1)C(N)=O` [Peptide 9, h-f-r-w-f] (Ac-[dH][dF][dR][dW][dF]-NH2), for which the Emax stood at 6.36%. Consider `CC[C@@H](C)[C@@H](NC(=O)[C@@H](Cc1c[nH]c2ccccc12)NC(=O)[C@@H](Cc1c[nH]cn1)NC(C)=O)C(=O)N[C@H](CCCNC(=N)N)C(=O)N[C@H](Cc1c[nH]c2ccccc12)C(=O)N[C@H](Cc1ccccc1)C(N)=O` [Peptide 21, h-w-i-r-w-f] (Ac-[dH][dW][dI][dR][dW][dF]-NH2), for which the Emax was 54.7%. Regarding `CC[C@@H](C)[C@@H](NC(=O)[C@H](Cc1ccccc1)NC(=O)[C@@H](Cc1c[nH]cn1)NC(C)=O)C(=O)N[C@H](CCCNC(=N)N)C(=O)N[C@H](Cc1c[nH]c2ccccc12)C(=O)N[C@H](Cc1ccccc1)C(N)=O` [Peptide 14, h-F-i-r-w-f] (Ac-[dH]F[dI][dR][dW][dF]-NH2), the Emax stood at 29.6%. Same read-out and setting: to `CC[C@@H](C)[C@@H](NC(=O)[C@@H](Cc1ccccc1)NC(=O)[C@@H](Cc1c[nH]cn1)NC(C)=O)C(=O)N[C@H](CCCNC(=N)N)C(=O)N[C@H](Cc1c[nH]c2ccccc12)C(N)=O` [Peptide 12, h-f-i-r-w] (Ac-[dH][dF][dI][dR][dW]-NH2) belongs 29.1%; to `CC(=O)N[C@H](Cc1c[nH]cn1)C(=O)N[C@H](Cc1ccccc1)C(=O)N[C@H](C)C(=O)N[C@H](CCCNC(=N)N)C(=O)N[C@H](Cc1c[nH]c2ccccc12)C(=O)N[C@H](Cc1ccccc1)C(N)=O` [Peptide 4, h-f-a-r-w-f] (Ac-[dH][dF][dA][dR][dW][dF]-NH2), 41.8%. The same measure, in the same setting: to `CC[C@@H](C)[C@@H](NC(=O)[C@@H](Cc1ccccc1)NC(=O)[C@@H](C)NC(C)=O)C(=O)N[C@H](CCCNC(=N)N)C(=O)N[C@H](Cc1c[nH]c2ccccc12)C(=O)N[C@H](Cc1ccccc1)C(N)=O` [Peptide 2, a-f-i-r-w-f] (Ac-[dA][dF][dI][dR][dW][dF]-NH2) belongs 13%. For `CC[C@@H](C)[C@@H](NC(=O)[C@@H](Cc1ccccc1)NC(=O)[C@@H](Cc1c[nH]cn1)NC(C)=O)C(=O)N[C@@H](CCCNC(=N)N)C(=O)N[C@H](Cc1c[nH]c2ccccc12)C(=O)N[C@H](Cc1ccccc1)C(N)=O` [Peptide 16, h-f-i-R-w-f] (Ac-[dH][dF][dI]R[dW][dF]-NH2), the Emax came to 43.6%.

`CC[C@@H](C)[C@@H](NC(=O)[C@@H](C)NC(=O)[C@@H](Cc1c[nH]cn1)NC(C)=O)C(=O)N[C@H](CCCNC(=N)N)C(=O)N[C@H](Cc1c[nH]c2ccccc12)C(=O)N[C@H](Cc1ccccc1)C(N)=O` [Peptide 3, h-a-i-r-w-f] (Ac-[dH][dA][dI][dR][dW][dF]-NH2): the Emax was 9.33%. For the molecule `CC[C@@H](C)[C@@H](NC(=O)[C@@H](Cc1ccccc1)NC(=O)[C@@H](Cc1c[nH]cn1)NC(C)=O)C(=O)N[C@H](C)C(=O)N[C@H](Cc1c[nH]c2ccccc12)C(=O)N[C@H](Cc1ccccc1)C(N)=O` [Peptide 5, h-f-i-a-w-f] (Ac-[dH][dF][dI][dA][dW][dF]-NH2), the Emax was determined as 44.1%. In the case of `CC[C@@H](C)[C@@H](NC(=O)[C@@H](Cc1ccccc1)NC(=O)[C@@H](Cc1c[nH]cn1)NC(C)=O)C(=O)N[C@H](CCCCN)C(=O)N[C@H](Cc1c[nH]c2ccccc12)C(=O)N[C@H](Cc1ccccc1)C(N)=O` [Peptide 27, h-f-i-k-w-f] (Ac-[dH][dF][dI][dK][dW][dF]-NH2), the Emax turned out to be 71.2%. Regarding `CC[C@@H](C)[C@@H](NC(=O)[C@@H](Cc1c[nH]cn1)NC(C)=O)C(=O)N[C@H](CCCNC(=N)N)C(=O)N[C@H](Cc1c[nH]c2ccccc12)C(=O)N[C@H](Cc1ccccc1)C(N)=O` [Peptide 8, h-i-r-w-f] (Ac-[dH][dI][dR][dW][dF]-NH2), the Emax is 2.76%. The same measure, in the same setting: the result for `CC[C@@H](C)[C@@H](NC(=O)[C@@H](Cc1ccc(O)cc1)NC(=O)[C@@H](Cc1c[nH]c2ccccc12)NC(C)=O)C(=O)N[C@H](CCCNC(=N)N)C(=O)N[C@H](Cc1c[nH]c2ccccc12)C(=O)N[C@H](Cc1ccccc1)C(N)=O` [Peptide 23, w-y-i-r-w-f] (Ac-[dW][dY][dI][dR][dW][dF]-NH2) reads 5.64%; that for `CC[C@@H](C)[C@@H](NC(=O)[C@@H](Cc1ccc(O)cc1)NC(=O)[C@@H](Cc1c[nH]cn1)NC(C)=O)C(=O)N[C@H](CCCNC(=N)N)C(=O)N[C@H](Cc1c[nH]c2ccccc12)C(=O)N[C@H](Cc1ccccc1)C(N)=O` [Peptide 20, h-y-i-r-w-f] (Ac-[dH][dY][dI][dR][dW][dF]-NH2), 56.5%. On to `CC[C@@H](C)[C@@H](NC(=O)[C@@H](Cc1c[nH]cn1)NC(=O)[C@@H](Cc1ccccc1)NC(C)=O)C(=O)N[C@H](CCCNC(=N)N)C(=O)N[C@H](Cc1c[nH]c2ccccc12)C(=O)N[C@H](Cc1ccccc1)C(N)=O` [Peptide 24, f-h-i-r-w-f] (Ac-[dF][dH][dI][dR][dW][dF]-NH2), for which the Emax was determined as 65.2%. As to `CC[C@@H](C)[C@@H](NC(=O)[C@@H](Cc1ccccc1)NC(=O)[C@@H](Cc1c[nH]cn1)NC(C)=O)C(=O)N[C@H](CCCNC(=N)N)C(=O)N[C@H](Cc1ccccc1)C(N)=O` [Peptide 11, h-f-i-r-f] (Ac-[dH][dF][dI][dR][dF]-NH2), the Emax was 12.1%.

As for `CC[C@@H](C)[C@@H](NC(=O)[C@@H](Cc1ccccc1)NC(=O)[C@@H](Cc1c[nH]cn1)NC(C)=O)C(=O)N[C@H](Cc1c[nH]c2ccccc12)C(=O)N[C@H](Cc1ccccc1)C(N)=O` [Peptide 10, h-f-i-w-f] (Ac-[dH][dF][dI][dW][dF]-NH2), the Emax was 25.3%. For `CC[C@@H](C)[C@@H](NC(=O)[C@@H](Cc1c[nH]cn1)NC(=O)[C@@H](Cc1c[nH]c2ccccc12)NC(C)=O)C(=O)N[C@H](CCCNC(=N)N)C(=O)N[C@H](Cc1c[nH]c2ccccc12)C(=O)N[C@H](Cc1ccccc1)C(N)=O` [Peptide 22, w-h-i-r-w-f] (Ac-[dW][dH][dI][dR][dW][dF]-NH2), the Emax was determined as 27.4%.

Take `CC[C@@H](C)[C@@H](NC(=O)[C@@H](Cc1ccccc1)NC(=O)[C@@H](Cc1c[nH]cn1)NC(C)=O)C(=O)N[C@H](CCCNC(=N)N)C(=O)N[C@H](C)C(=O)N[C@H](Cc1ccccc1)C(N)=O` [Peptide 6, h-f-i-r-a-f] (Ac-[dH][dF][dI][dR][dA][dF]-NH2): the Emax was determined as 13.4%.

Staying with this test, now noted: forskolin stimulated cells; agonist alone or with 10 μM peptide 1.
For `CC(C)[C@@H]1NC(=O)[C@H](CCCCN)NC(=O)[C@@H](Cc2c[nH]c3ccccc23)NC(=O)[C@H](Cc2ccc(O)cc2)NC(=O)[C@H](C)N(C)C(=O)[C@H](Cc2ccccc2)NC1=O` [MK678, reference compound], the “Maximum (cAMP level of agonist dose response)” value was 6.431 and the “Minimum (cAMP level of agonist dose response)” value worked out at 2.673.
